From patent publication US6677460B1, “Aromatic carboxylic acid bicyclic sulfur compounds” (Idemitsu Kosan Company, Limited, priority 1993, dated 2004)

Columns and labels:
Assay type in all cases: in vivo
Settings in all cases: 100 g/hectare, 20th day after treatment
corn = assay: Upland soil treatment test (6), phytotoxicity
Experimental: (§1) 90 Parts by weight of the above carrier and 10 parts by weight of each of Compounds obtained in the above Preparation Examples were uniformly pulverized and mixed to obtain herbicides. Further, for Herbicide Comparative Examples, comparative herbicides were prepared by uniformly pulverizing and mixing 90 parts by weight of the above carrier and 10 parts by weight of each of the following Compounds x, y, A, B and C.
(§2) (6) Biological Test (Upland Soil Treatment Test, Herbicide Examples 27˜42 and Comparative Example 10).
(§3) Seeds of weeds such as large crabgrass, barnyard grass, green foxtail, cocklebur , velvetleaf and slender amaranth and seeds of corn, wheat and barley were sown in 1/5,000-are Wagner pots filled with upland soil, and covered with upland soil. Then, a predetermined amount of the herbicide prepared in the above (1) was suspended in water and uniformly sprayed onto the soil surface. Thereafter, the plants were grown in the greenhouse, and on 20th day after the treatment, the herbicide was evaluated f or herbicidal efficacy.
(§4) The dosage of each herbicide is indicated as an amount of the active ingredient per hectare. Further, air-dried weight were measured and the herbicidal efficacy and the phytotoxicity to corn are shown on the basis of the ratings described below.

large crabgrass = assay: Upland soil treatment test (6)
Experimental: as §1, §2, §3, §4

cocklebur = assay: Upland soil treatment test (6)
Experimental: as §1, §2, §3, §4

barnyard grass = assay: Upland soil treatment test (6)
Experimental: as §1, §2, §3, §4

green foxtail = assay: Upland soil treatment test (6)
Experimental: as §1, §2, §3, §4

velvetleaf = assay: Upland soil treatment test (6)
Experimental: as §1, §2, §3, §4

slender amaranth = assay: Upland soil treatment test (6)
Experimental: as §1, §2, §3, §4
Further: ranges in brackets are in %.

## CCn1ncc(C(=O)c2cc(C)c3c(c2C)C(C)CCS3(=O)=O)c1O (stereo not shown) [Compound 44, 4,5,8-trimethyl-6-(1-ethyl-5-hydroxypyrazol-4-yl)carbonylthiochroman-1,1-dioxide]
corn
  Phytotoxicity to corn: 0 (100)
Large crabgrass
  Herbicidal efficacy (A): large crabgrass: 5 (0)
cocklebur
  Herbicidal efficacy (D): cocklebur: 5 (0)
Barnyard grass
  Herbicidal efficacy (B): barnyard grass: 5 (0)
Green foxtail
  Herbicidal efficacy (C): green foxtail: 5 (0)
velvetleaf
  Herbicidal efficacy (E): velvetleaf: 5 (0)
Slender amaranth
  Herbicidal efficacy (F): slender amaranth: 5 (0)

## CCn1ncc(C(=O)c2ccc3c(c2C)CCCS3(=O)=O)c1O [Compound 48, 5-Methyl-6-(1-ethyl-5-hydroxypyrazol-4-yl)carbonylthiochroman-1,1-dioxide]
corn
  Phytotoxicity to corn: 0 (100)
Large crabgrass
  Herbicidal efficacy (A): large crabgrass: 5 (0)
cocklebur
  Herbicidal efficacy (D): cocklebur: 1 (61-80)
Barnyard grass
  Herbicidal efficacy (B): barnyard grass: 5 (0)
Green foxtail
  Herbicidal efficacy (C): green foxtail: 1 (61-80)
velvetleaf
  Herbicidal efficacy (E): velvetleaf: 5 (0)
Slender amaranth
  Herbicidal efficacy (F): slender amaranth: 5 (0)

## CCCS(=O)(=O)Oc1c(C(=O)c2cc(C)c3c(c2C)C(C)CCS3(=O)=O)cnn1CC (stereo not shown) [Compound 51, 4,5,8-trimethyl-6-(1-ethyl-5-n-propanesulfonyloxypyrazol-4-yl)carbonylthiochroman-1,1-dioxide]
corn
  Phytotoxicity to corn: 0 (100)
Large crabgrass
  Herbicidal efficacy (A): large crabgrass: 5 (0)
cocklebur
  Herbicidal efficacy (D): cocklebur: 5 (0)
Barnyard grass
  Herbicidal efficacy (B): barnyard grass: 5 (0)
Green foxtail
  Herbicidal efficacy (C): green foxtail: 5 (0)
velvetleaf
  Herbicidal efficacy (E): velvetleaf: 5 (0)
Slender amaranth
  Herbicidal efficacy (F): slender amaranth: 5 (0)

## CCn1ncc(C(=O)c2cc(C)c3c(c2C)C(C)CCS3(=O)=O)c1OS(=O)(=O)c1ccc(C)cc1 (stereo not shown) [Compound 52, 4,5,8-trimethyl-6-(1-ethyl-5-p-toluenesulfonyloxypyrazol-4-yl)carbonylthiochroman-1,1-dioxide]
corn
  Phytotoxicity to corn: 0 (100)
Large crabgrass
  Herbicidal efficacy (A): large crabgrass: 5 (0)
cocklebur
  Herbicidal efficacy (D): cocklebur: 5 (0)
Barnyard grass
  Herbicidal efficacy (B): barnyard grass: 5 (0)
Green foxtail
  Herbicidal efficacy (C): green foxtail: 5 (0)
velvetleaf
  Herbicidal efficacy (E): velvetleaf: 5 (0)
Slender amaranth
  Herbicidal efficacy (F): slender amaranth: 5 (0)
